Test results taken from patent US5134150A, “Inhibition of the 5-lipoxygenase pathway” (priority 1989, dated 1992).

Key:
[1] = tested on: Infiltration of Polymorphonuclear Leukocytes into Sites of Carrageenan-Induced Inflammation; assay: Mouse carrageenan peritonitis (PMN infiltration); format: in vivo, mouse (male Balb/c); conditions: carrageenan peritonitis, mice
Text: (§1) In the following Examples where mice were used, they were male Balb/c mice (20-28 g), and where rats were used, they were male Lewis rats (180-210 g). All mice and rats were obtained from Charles River Breeding Laboratories, Kingston, N.Y. Within a single experiment, mice and rats were sex and age matched.
(§2) The compounds of Formula (I) were used either as the free base or in the appropriate salt form. Levamisole was used as the hydrochloride salt. The compounds were homogenized in 0.5% tragacanth. Compounds were administered by gavage at the indicated dose in a final volume of 10 ml/kg. Nordihydroguaiaretic acid (NDGA) was solubilized in dimethylacetamide and diluted with olive oil for subcutaneous administration.
Mice were pretreated with either the test compound or vehicle one hour before the intraperitoneal injection of a 1.0% carrageenan suspension in saline (0.2 ml/mouse). Mice were sacrificed by cervical dislocation two hours after injection, and 3.0 ml of phosphate buffered saline, without Ca^++ or Mg^++, was injected into the peritoneum. Following massage, a 2.0 ml aliquot of the lavage fluid was removed, and the total cell count determined on a Coulter counter and differential cell count determined by microscopic examination of Giesma-stained slides.

[2] = tested on: Arachidonic Acid-Induced Rat Paw Edema; assay: Arachidonic acid-induced rat paw swelling; format: in vivo, rat (male Lewis)
Text: as §1
Auranofin, phenidone, indomethacin, naproxen, and ibuprofen were each used as the free base. The compounds of Formula (I) were used either as the free base or in the appropriate salt form. Levamisole was used as the hydrochloride salt. The compounds were homogenized in 0.5% tragacanth. Compounds were administered by gavage at the indicated dose in a final volume of 10 ml/kg. Nordihydroguaiaretic acid (NDGA) was solubilized in dimethylacetamide and diluted with olive oil for subcutaneous administration.
After determining pretreatment paw volumes by plethysmography by the method of Webb and Griswold, J. Pharmacol. Methods, 12, 149-153 (1984), rats were given test compound or vehicle one hour prior to the subplantar injection of 0.1 ml of 1 mg/ml arachidonic acid. Paw volumes were then remeasured and compared to pretreatment values and the increase in paw volume was expressed as mean values ± S.D.

[3] = tested on: Carrageenan-Induced Cellular Infiltration into the Rat Air Pouch; assay: Carrageenan-induced air pouch inflammation; format: in vivo, rat (male Lewis)
Text: as §1, §2
(§3) Rats were shaved on the dorsal flank, and then injected subcutaneously one day later with 20 ml of air to form a defined pouch, by the method of Sedgwick et al., J. Pathology, 141, 483-495 (1983). The air pouch was reinflated as necessary over the next 6 days. To assay anti-inflammatory activity, animals were treated orally with test compound or vehicle (10 ml/kg) one hour before injection of 2.0 ml of a 2.0% carrageenan suspension containing […] penicillin and 100 µg/ml streptomycin into the air pouch. In other experiments, 5 ml of 0.1% arachidonic acid in 0.2M bicarbonate buffer was injected two hours after drug treatment. Animals were sacrificed using CO2 three hours after instillation of irritant. The exudate was then aspirated from the pouch and neutrophil count and differential cell count were measured.

[4] = tested on: Arachidonic Acid-Induced Cellular Infiltration into the Rat Air Pouch; assay: Arachidonic acid-induced air pouch inflammation; format: in vivo, rat (male Lewis)
Text: as §1, §2, §3

Cyclooxygenase = biological target: T1, Cyclooxygenase (Rattus norvegicus, UniProt Q63921); assay: Cyclooxygenase activity (PGD2) in RBL-1 cell extracts, 10,000 x g supernatant; format: biochemical; conditions: Table 8
T1 construct: The activities of these enzymes in extracts of RBL-1 cells were assayed; host or cells: RBL-1
T1 sequence (Q63921 27-602): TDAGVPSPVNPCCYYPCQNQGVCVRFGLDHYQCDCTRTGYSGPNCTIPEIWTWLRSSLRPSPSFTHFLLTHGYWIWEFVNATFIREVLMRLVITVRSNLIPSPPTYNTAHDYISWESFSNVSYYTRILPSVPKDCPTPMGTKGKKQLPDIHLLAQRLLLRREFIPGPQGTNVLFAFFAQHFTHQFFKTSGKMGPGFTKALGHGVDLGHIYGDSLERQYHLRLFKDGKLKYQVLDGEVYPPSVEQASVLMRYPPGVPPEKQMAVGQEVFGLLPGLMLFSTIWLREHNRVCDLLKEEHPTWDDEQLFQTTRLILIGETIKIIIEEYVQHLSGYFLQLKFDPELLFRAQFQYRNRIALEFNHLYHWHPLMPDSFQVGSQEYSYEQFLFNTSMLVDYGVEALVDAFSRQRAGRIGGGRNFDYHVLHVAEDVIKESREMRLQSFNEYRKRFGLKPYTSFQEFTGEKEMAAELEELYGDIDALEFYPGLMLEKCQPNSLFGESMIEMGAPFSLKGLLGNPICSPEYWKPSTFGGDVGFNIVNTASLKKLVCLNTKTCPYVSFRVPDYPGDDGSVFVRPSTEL

[5] = tested on: LTB4 synthesis by peritoneal exudate cells; assay: Ex vivo production of LTB4 from peritoneal exudate cells of drug-treated mice; format: in vivo, mouse; conditions: for inhibition at 200 mg/kg: Mus musculus, po, 200 mg/kg p.o.
Text: In the following Examples where mice were used, they were male Balb/c mice (20-28 g), and where rats were used, they were male Lewis rats (180-210 g). All mice and rats were obtained from Charles River Breeding Laboratories, Kingston, N.Y. Within a single experiment, mice and rats were sex and age matched. Auranofin, phenidone, indomethacin, naproxen, and ibuprofen were each used as the free base. The compounds of Formula (I) were used either as the free base or in the appropriate salt form. Levamisole was used as the hydrochloride salt. […] Nordihydroguaiaretic acid (NDGA) was solubilized in dimethylacetamide and diluted with olive oil for subcutaneous administration. Carrageenan-induced peritoneal exudate cells from normal or drug-treated mice were washed and suspended in 2.2 ml of phosphate buffered saline. […] The cell preparation was centrifuged at 1500 rpm for 10 min and the supernatant was extracted using a C-18 silica column. […] A tetrahydrofuran, methanol, water, acetic acid (25:30:45: 0.1) solvent system, adjusted to pH 5.5 with ammonium hydroxide, was used at a flow rate of 0.7 ml/min. Cell derived LTB4 was quantified utilizing standard curves constructed with known amounts of synthetic LTB4.

IC50 Cyclooxygenase (Cyclooxygenase): Inactive @ 100
Structure (SMILES): O=C1CCN(c2ccccc2)N1 [Phenidone]
PMN infiltration, result in words [1]: effective
Change in Paw Volume ([2]; 100 mg/kg, 2 hours post arachidonic acid): 0.13 ± 0.05 mL
Rat paw inflammatory response, result in words ([2]; rat, in vivo): inhibited significantly
Cellular Infiltrate MN ([3]; 100 mg/kg): 3.5 ± 1.4 Total × 10^-6
Cellular Infiltrate PMN ([3]; 100 mg/kg): 1.7 ± 0.6 Total × 10^-6
Exudate Volume ([3]; 100 mg/kg): 1.5 ± 0.8 mL
Cell infiltration into carrageenan air pouch, result in words ([3]; rat, in vivo): reduction in the PMN count and the PMN:mononuclear cell ratio
Cellular Infiltrate MN ([4]; 100 mg/kg): 2.2 ± 1.5 Total × 10^-6
Cellular Infiltrate PMN ([4]; 100 mg/kg): 1.3 ± 0.8 Total × 10^-6
Exudate Volume ([4]; 100 mg/kg): 2.8 ± 0.4 mL
Cell infiltration into arachidonic acid air pouch, result in words ([4]; rat, in vivo): significantly reduced PMN and mononuclear cell infiltration
inhibition at 200 mg/kg ([5]; Experiment 2): 21%
inhibition at 200 mg/kg ([5]; Experiment 3): 33%
LTB4 production ex vivo, result in words ([5]; mouse, in vivo): weaker but inhibition of LTB4 synthesis
